The structures appear in SMILES notation. Counter-ions that a name gives are not always drawn.

Data on eleven molecules can be found in US6265439A, “Halogenated phenylacetonitrile alkylaminoalkylphenyl compounds as immunosuppressives” (G.D. Searle & Co., priority 2000, dated 2001).

For experiment [1], the system named is conA stimulated spleen cells (T lymphocytes) from female Balb/c mice. The experiment is described as follows: Assay B: Suppression of Mitogen-Stimulated Proliferation (Murine) (Culture Conditions II). The class given is cell-based, Murine (Balb/c mice). The following applies: Mus musculus, T-lymphocyte, 72 h; conA 1 ug/ml, 10^5 cells per well, 3 days, MTT. The text has this:
Assay B: Suppression of Mitogen-Stimulated Proliferation(Murine)(Culture Conditions II.)
It is known that lymphocyte activation can be polyclonally stimulated by plant lectins and other mitogenic substances that induce blast transformation and mitosis. The plant lectin concanavalin A (conA) preferentially induces activation and proliferation of T lymphocytes. Exposure of T cells to conA results in polyclonal T cell activation, and this response can be used to determine the in vitro index of immunomodulatory effects of test compounds on pan-T cell activation. Spleen cells were harvested asceptically from female Balb/c mice, and cells were extruded by compression in phosphate buffered saline (pH 7.0). Cells were pelleted by centrifugation (300×g/5 min) and erythrocytes were lysed by resuspension of the splen cells in a hypotonic solution (5 ml per spleen) containing 0.14M NH4 Cl and 0.017M Tris base, pH 7.2, and incubation for 5 min. An equal volume of freshly prepared medium [lscovels modified Dulbecco's medium containing 2 mM L-glutamine, 5% heat inactivated (56° C./45 min) fetal bovine serum and 40 uM 2-mercaptoethanol] .was added to stop cell lysis. The remaining cells were pelleted, resuspended in medium, filtered through a cotton plug to remove debris, and the leukocytes were then counted. Leukocytes (10^5 cells per 10 ul per well) were incubated at 37° C. in a 95% air/[…] atmosphere in 96 well microtiter plates for 3 days. At the start of culture conA (1 ug/ml, SIGMA Chemical Co., St. Louis, Mo.) alone or in combination with test compound (0.0001-60 uM final) or vehicle control (0.6% DMSO or ethanol). All test compounds were dissolved in 95% ethanol or 100% DMSO, and subsequent dilutions were prepared in media. Inhibition of conA stimulated T cell proliferation was measured using a calorimetric indicator of cell growth and proliferation, MTT [3-(4,5-dimethylthiazol-2-yl)-2 diphenyltetrazolium bromide; 100 ul of a 1 mg/ml solution per well, SIGMA][Mosmann, T., 1988. J. Immunol. Methods 65, 55-63.]Cells were loaded with MTT dye at 37° C. for 4 hours; media supernatants were then aspirated from the cell pellets. MTT loaded cells were solubilized in isopropanol (150 ul per well). Light absorbance was measured at a test wavelength of 570 nm and a reference wavelength of 650 nm using a spectrophotometer. EC50 values for immunosuppressive compounds were estimated by four parameter logistical regression analysis of the optical density data [Delean, A., Munson, P. J. and D. Robard, 1978. Am,. J. Physiol. 235:397.

For experiment [2] the following is noted: literature, Acta. Pharmacologica Sinica, 11(3), 281-285 (1990); cited from earlier work.
Experiment [3] has as its system human peripheral blood mononuclear cells. The experiment is described as follows: Assay C: One-Way Mixed Lymphocyte Reaction (Human). The class given is cell-based. The following applies: mitomycin-C inactivated Raji stimulator cells, 120 hours, 3H-thymidine incorporation. An excerpt:
Assay C: One-Way Mixed Lymphocyte Reaction (Human)
The mixed lymphocyte reaction (MLR) is an assay that measures T-cell activation and mitosis which occurs when lymphocytes from different major and minor histocompatibility complex (MHC) haplotypes are cocultured. This response is considered a "one-way MLR" when stimulator cells are made unresponsive by inhibition of DNA synthesis (treatment with mitomycin-C or gamma-irradiation) prior to coculture with responder cells. This assay can be used as an indicator of the cellular immunomodulation mechanisms involved in transplant rejection. In this assay, human peripheral blood mononuclear cells(PMNC) were used as the responder cell population and were isolated from normal donor blood as follows: Blood samples were collected in LeucoPREP™ tubes (Becton Dickinson, Lincoln Park, N.J.) and the mononuclear cell preparation was obtained by following the manufacturers procedures. Isolated mononuclear cells were co-incubated at 6×10^4 cells/well with a stimulator cell line at 2×10^4 cells/well in RPMI 1640 medium containing 5% fetal bovine serum and 2-mercaptoethanol (40 μM). The stimulator cell line, Raji, which was derived from a human Burkitt lymphoma (American Type Culture Collection, Rockville Md.) was previously inactivated by mitomycin-C treatment (Sigma, St. Louis Mo., 25 μg/ml, 37° for 30 minutes). After repeated washings of mitomycin-C from the stimulator cell line, cocultures were incubated in 96 well microtiter plates at 37° C., in 95% air/5% CO2 atmosphere for 120 hours in the presence or absence of test compounds (0.1-25 μM). Inhibition of proliferation was measured by reduced incorporation of ^3 H-thymidine (0.5 μCi/well, added during the last 24 hours of the assay). The IC50 values for the immunosuppressant compounds were calculated by four parameter logistic regression analysis of the results [Delean et al, Id.]
(In general: Dividing cells build labelled thymidine or BrdU into new DNA.)

For experiment [4], the system named is ConA-stimulated spleen cells (T-cells) from female Balb/c mice. Description: Assay A: Suppression of Mitogen-Stimulated Proliferation (Murine) (Culture Conditions I). Format: cell-based, Murine (Balb/c mice). Conditions: Mus musculus, T-cell, 120 h; ConA 1.0 μg/ml, 10^5 cells/well, 5 days, MTT. The text has this:
Assay A: Suppression of Mitogen-Stimulated Proliferation (Murine)(Culture Conditions I)
Lymphocyte activation can be polyclonally stimulated by plant lectins and other mitogens that induce blast transformation and mitosis. Certain mitogens like Concanavalin A (ConA), preferentially activate T-lymphocytes. Exposure to ConA results in polyclonal activation of T-cells and can be used as an in vitro index for general immunomodulation of pan T-cell activity. In this assay spleen cells harvested from female Balb/c mice were incubated at 37° C., in 95% air/5% CO2 atmosphere in 96 well microtiter plates (10^5 cells/well) for 5 days with Iscove's modified Dulbecco's medium [25 mM HEPES […] L-glutamine, 5% fetal bovine serum and 2-mercaptoethanol (40 μM)], concanavalin A (ConA) alone (Sigma, St. Louis, Mo.; 1.0 μg/ml) or ConA in the presence of test compounds (0.001-25 μM). Inhibition of ConA-stimulated proliferation was measured by addition of the calorimetric indicator of growth metabolic activity or viability, MTT (3-(4,5-dimethylthiazol-2-yl)-2 diphenyl tetrazolium bromide; (100 μl/well, 1 mg/ml) Sigma) [Mosmann, T., J. of Immunological Methods, 65, 55-63, 1988]. After four hours, plates were centrifuged (1200 rpm) media supernatants aspirated and dye loaded cells were solubilized in isopropanol (150 μl/well). The absorbance was measured on an ELISA plate reader with a test wavelength of 570 nm and a reference of 630 nm. The IC50 values for active immunosuppressant compounds were calculated by four parameter logistic regression analysis of the results [Delean et al, Am. J. Physiol., 235, 397 (1978)].

By IC50 is commonly meant the concentration at which inhibition is half-maximal. As to `CC(C)C(C#N)(CCCN(C)Cc1ccccc1)c1ccc(F)c(F)c1` (racemic) [Example 1, (±)-3,4-difluoro-α-(1-methylethyl)-α-[3-[methyl(phenylmethyl)amino]propyl]benzeneacetonitrile], the IC50 in experiment [1] turned out to be 2.41 µM.
For `CC(C)C(C#N)(CCCN(Cc1ccccc1)Cc1ccccc1)c1ccc(F)cc1` (racemic) [Example 10, (±)-α-[3-[bis(phenylmethyl)amino]propyl]-4-fluoro-α-(1-methylethyl)benzeneacetonitrile, monohydrochloride], the IC50 in experiment [1] came out at 13.5 µM.
In the case of `COC(=O)C1=C(C)NC(C)=C(C(=O)OC)C1c1ccccc1[N+](=O)[O-]` [nifedipine], the “acute and chronic antiinflammatory effects” value in experiment [2] is “dose-dependent acute and chronic antiinflammatory effects”.
Take `CC(C)C(C#N)(CCCN(C)CCc1ccccc1)c1ccc(F)cc1` (racemic) [Example 3, (±)-4-fluoro-α-(1-methylethyl)-α-[3-[methyl(2-phenylethyl)amino]propyl]benzeneacetonitrile, monohydrochloride]: the half-inhibitory concentration (IC50) in experiment [1] came out at 3.22 µM; in experiment [3], 4.8 µM; in experiment [4], 1 µM.
As to `CC(C)C(C#N)(CCCN(C)Cc1ccccc1)c1ccccc1F` (racemic) [Example 8, (±)-2-fluoro-α-(1-methylethyl)-α-[3-[methyl (phenylmethyl)amino]propyl]benzeneacetonitrile, monohydrochloride], the IC50 in experiment [1] is 3.35 µM; in experiment [3], 2.9 µM; in experiment [4] it was 1.4 µM.
As for `CC(C)C(C#N)(CCCCCN(C)Cc1ccccc1)c1ccc(F)cc1` (racemic) [Example 6, (±)-4-fluoro-α-(1-methylethyl)-α-[5-methyl(phenylmethyl)amino]pentyl]benzeneacetonitrile], the IC50 in experiment [1] is 0.93 µM; in experiment [4] it was 0.5 µM.
As for `COC(=O)C1=C(C)NC(C)=C(C(=O)OCCN(C)Cc2ccccc2)C1c1cccc([N+](=O)[O-])c1` (stereo not shown) [nicardipine], the “acute and chronic antiinflammatory effects” value in experiment [2] was “dose-dependent acute and chronic antiinflammatory effects”.
As for `CC(C)C(C#N)(CCCCN(C)Cc1ccccc1)c1ccc(F)cc1` (racemic) [Example 5, (±)-4-fluoro-α-(1-methylethyl)-α-[4-(methyl (phenylmethyl)amino]butyl]benzeneacetonitrile, monohydrochloride], the concentration for half-maximal inhibition (IC50) in experiment [1] turned out to be 1.76 µM; in experiment [3] it was 2.1 µM; in experiment [4], 0.9 µM.
As for `CC(C)C(C#N)(CCCN(C)Cc1ccccc1)c1c(F)cccc1F` (racemic) [Example 9, (±)-2,6-difluoro-α-(1-methylethyl)-α-[3-[methyl(phenylmethyl)amino]propyl]benzeneacetonitrile, monohydrochloride], the half-inhibitory concentration (IC50) in experiment [1] is 4.15 µM.
On to `CC(C)C(C#N)(CCCN(C)Cc1ccccc1)c1ccc(F)cc1` (racemic) [Example 2, (±)-4-fluoro-α-(1-methylethyl)-α-[3-[methyl (phenylmethyl)amino]propyl]benzeneacetonitrile, monohydrochloride], for which the 50% inhibitory concentration (IC50) was 5.19 µM in experiment [1], 7.2 µM in experiment [3] and 2.2 µM in experiment [4].
Regarding `CN(CCCC(C#N)(c1ccc(F)cc1)C1CCCC1)Cc1ccccc1` (racemic) [Example 4, (±)-α-cyclopentyl-4-fluoro-α-[3-(methyl(phenylmethyl)amino]propyl]benzeneacetonitrile, monohydrochioride], the IC50 in experiment [1] is 4.81 µM; in experiment [3], 2.3 µM; in experiment [4], 3.2 µM.
